Where a SMILES comes first, the peptide text is derived from it. Bridges are numbered along the chain shown (N, C = ends). Where no end group is shown, it is not given here.
Key:
[1] = molecular target: T1, rat ASIC3 (Rattus norvegicus, UniProt O35240); test: Two-electrode voltage-clamp electrophysiology on Xenopus laevis oocytes expressing homomeric rat ASIC3; format: cell-based; conditions: n = 6
T1 construct: expressed in transfected cells; host or cells: Xenopus laevis oocytes (cRNA injection)
T1 sequence (O35240 1-533): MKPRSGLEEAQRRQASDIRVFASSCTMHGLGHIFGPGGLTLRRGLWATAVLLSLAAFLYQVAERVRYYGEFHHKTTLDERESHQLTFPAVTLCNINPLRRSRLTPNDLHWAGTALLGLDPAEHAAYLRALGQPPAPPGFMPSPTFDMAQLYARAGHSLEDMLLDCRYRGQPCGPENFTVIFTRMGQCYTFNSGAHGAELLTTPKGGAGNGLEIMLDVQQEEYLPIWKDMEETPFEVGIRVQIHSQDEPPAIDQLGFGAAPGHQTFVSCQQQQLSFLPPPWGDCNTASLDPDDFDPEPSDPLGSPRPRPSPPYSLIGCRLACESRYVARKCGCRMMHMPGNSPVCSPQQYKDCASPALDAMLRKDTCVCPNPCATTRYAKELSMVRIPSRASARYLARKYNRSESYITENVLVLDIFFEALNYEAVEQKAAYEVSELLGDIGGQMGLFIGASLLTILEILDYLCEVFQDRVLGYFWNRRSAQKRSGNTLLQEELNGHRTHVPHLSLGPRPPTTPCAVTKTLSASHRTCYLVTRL
Protocol: The biological activity of wild-type APETx2 was compared with that of truncations and cyclic analogues using voltage-clamp electrophysiology experiments on Xenopus laevis oocytes expressing homomeric rat ASIC3. […] At 1000 nM, a concentration of APETx2 that normally causes >90% inhibition of ASIC3 [18], all three cyclic analogues had little activity (~10% inhibition, n = 6) (Figure 5). Although a full concentration-effect curve was not obtained, there is an approximate 125-fold decrease in activity for all three cyclic analogues based on the concentration that causes 10% inhibition (~8 nM for wild-type APETx2 vs. 1000 nM for cyclic APETx2).
Oocytes were obtained from Xenopus laevis frogs and treated with collagenase (Sigma type I) for defolliculation. cRNA of rat ASIC3 was synthesised using an mMessage mMachine cRNA transcription kit and healthy stage V–VI oocytes injected with 4 ng rat ASIC3 cRNA (40 nL of 100 ng/μL). Oocytes were kept at 17 °C in ND96 solution (96 mM NaCl, 2 mM KCl, 1 mM CaCl2, 2 mM MgCl2, 5 mM HEPES, 5 mM pyruvic acid, 50 µg/mL gentamicin, 2.5% fetal horse serum, pH 7.4). Membrane currents were recorded 2–6 days post cRNA injection under voltage-clamp (Axoclamp 900 A amplifier, Molecular Devices, Sunnyvale, CA, USA) using two standard glass microelectrodes with resistances of 0.5–1 MΩ when filled with 3 M KCl solution. […]

[2] = molecular target: T2, pepsin (Sus scrofa, UniProt P00791); test: Simulated gastric fluid (SGF) stability assay; format: in vitro ADME; conditions: 20 μM peptide, RP-HPLC
T2 construct: purchased Sigma Aldrich
T2 sequence (P00791 60-385): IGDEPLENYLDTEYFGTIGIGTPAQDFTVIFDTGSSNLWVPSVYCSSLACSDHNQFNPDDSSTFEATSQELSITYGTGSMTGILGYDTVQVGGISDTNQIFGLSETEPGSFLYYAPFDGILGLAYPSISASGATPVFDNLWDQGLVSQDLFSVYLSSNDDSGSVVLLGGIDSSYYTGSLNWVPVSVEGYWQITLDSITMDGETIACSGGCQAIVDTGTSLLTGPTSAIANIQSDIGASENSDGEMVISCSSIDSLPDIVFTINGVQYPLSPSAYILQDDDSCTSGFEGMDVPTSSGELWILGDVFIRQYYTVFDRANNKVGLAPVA
Protocol: (§1) The following protocol was modified from a published method: Wild-type APETx2 and cyclic analogues were separately diluted into 350 μL SGF (6.2 mg/mL pepsin, 30 mM NaCl, pH 1.9) to a final peptide concentration of 20 μM. Reactions were started with the addition of the peptides and the mixtures were incubated at 37 °C. 35-μL samples were taken at 0, 15, 30, 45, 60, 120, 240 and 480 min and mixed with 5 μL pepstatin A to quench the reaction (3.3 mg/mL dissolved in ethanol). Progress was monitored using RP-HPLC and each time point was investigated in triplicate.

[3] = tested on: T3, pepsin; test: Simulated gastric fluid (SGF) stability assay; format: in vitro ADME; conditions: simulated gastric fluid (SGF) with pepsin; SGF: 6.2 mg/mL pepsin, 30 mM NaCl, pH 1.9; 20 μM peptide; 37 °C; samples 0-480 min; RP-HPLC; each time point in triplicate
T3 construct: purchased Sigma Aldrich
Protocol: as §1

[4] = Solution stability under lab storage conditions; format: physicochemical; conditions: dissolved in water and kept at 4 °C; unpublished observations
[5] = tested on: trypsin; test: Trypsin stability assay; format: in vitro ADME; conditions: 5 mM EDTA, pH 8.0, 20 μM peptide, 37 °C, RP-HPLC; for Trypsin stability assay: half-life / half-life at 20 μM: 1 μg trypsin in 500 μL 20 mM Tris, samples 0-48 h, each time point in triplicate
Protocol: The following protocol was modified from a previous published method: Wild-type APETx2 and cyclic analogues were diluted into 500 μL trypsin buffer (20 mM Tris, 5 mM EDTA, pH 8.0) to a final concentration of 20 μM. Reactions were started by adding 1 μg trypsin to each sample. A 35-μL sample was used for each time point and quenched by mixing with 35 μL 0.2% TFA. Protease digestion was monitored using analytical RP-HPLC. Reactions were incubated at 37 °C and samples were taken at 0, 0.5, 1, 2, 4, 12, 24 and 48 h. All time points were investigated in triplicate.

CC[C@H](C)[C@@H]1NC(=O)CNC(=O)[C@H](CCCCN)NC(=O)[C@H](CO)NC(=O)[C@H](CC(N)=O)NC(=O)CNC(=O)[C@@H]2CSSC[C@@H]3NC(=O)[C@H](CO)NC(=O)CNC(=O)[C@H]([C@@H](C)O)NC(=O)[C@H](Cc4ccc(O)cc4)NC(=O)CNC(=O)[C@H](CCCNC(=N)N)NC(=O)[C@H](CC(=O)O)NC(=O)[C@H]([C@@H](C)O)NC(=O)[C@@H]4CCCN4C(=O)[C@H](CSSC[C@@H](C(=O)N[C@H](C(=O)N4CCC[C@H]4C(=O)N[C@@H](C)C(=O)N[C@@H](CC(=O)O)C(=O)O)[C@@H](C)O)NC(=O)[C@H](CSSC[C@H](NC(=O)[C@H](C)N)C(=O)N[C@@H](CO)C(=O)N2)NC(=O)[C@H]([C@@H](C)O)NC(=O)CNC(=O)[C@H](CC(C)C)NC(=O)[C@H](Cc2ccccc2)NC(=O)[C@H](Cc2ccc(O)cc2)NC(=O)[C@H](CCCNC(=N)N)NC3=O)NC(=O)[C@H](CO)NC(=O)[C@@H]2CCCN2C(=O)[C@H](CCCNC(=N)N)NC(=O)[C@H](Cc2ccc(O)cc2)NC(=O)[C@H](Cc2ccccc2)NC(=O)[C@H](Cc2c[nH]c3ccccc23)NC(=O)[C@H](Cc2ccc(O)cc2)NC1=O [APETx2_3–42] (H-ACSCGNSKGIYWFYRPSCPTDRGYTGSCRYFLGTCCTPAD-OH; disulfide 2-35, 4-28, 18-36)
inhibition at 3 µM ([1]; 3 μM peptide, rat ASIC3 in Xenopus oocytes, read-out: inhibition of ASIC3 currents at 3 μM): ~13%

GTACSCGNSKGIYWFYRPSCPTDRGYTGSCRYFLGTCCTPAD (disulfide 4-37, 6-30, 20-38) [APETx2_wt, APETx2]
time within which peptide is almost totally digested in simulated gastric fluid ([2]; SGF 6.2 mg/mL pepsin, pH 1.9, 37 °C): ≤ 20 min | Simulated gastric fluid stability assay: half-life ([2]; SGF: 6.2 mg/mL pepsin, 30 mM NaCl, pH 1.9, 37 °C, samples 0-480 min, each time point in triplicate): 5 min | half-life at 20 μM [3]: ~0.0833 h | solution stability under lab storage conditions [4]: stable for months | Trypsin stability assay: half-life [5]: 2.8 h | Trypsin stability assay: half-life ([5]; listed as wild-type APETx2): ~ 2.8 h | remaining at 48 h, 20 μM ([5]; trypsin in Tris/EDTA buffer, 48 h, 1 μg trypsin, 20 mM Tris, triplicate, read-out: peptide remaining intact after 48 h in the presence of trypsin): ~4% | IC50 ([1]; Xenopus oocytes, clamped at −60 mV, pH 6 stimulus, ND96 with 0.1% BSA, RT, read-out: IC50 for inhibition of rASIC3 currents): 61 nM

cyclo(ACSCGNSKGIYWFYRPSCPTDRGYTGSCRYFLGTCCTPADAGASGSAGT) (disulfide 2-35, 4-28, 18-36) [cAPETx2_7RL]
half-life at 20 μM [3]: 2.75 h | half-life at 20 μM ([5]; trypsin in Tris/EDTA buffer): 134 h

cyclo(ACSCGNSKGIYWFYRPSCPTDRGYTGSCRYFLGTCCTPADGASGSAGT) (disulfide 2-35, 4-28, 18-36) [cAPETx2_6RL]
half-life at 20 μM [3]: 1.9 h | half-life at 20 μM ([5]; trypsin in Tris/EDTA buffer): 104 h

cyclo(ACSCGNSKGIYWFYRPSCPTDRGYTGSCRYFLGTCCTPADSAGASGSAGT) (disulfide 2-35, 4-28, 18-36) [cAPETx2_8RL]
half-life at 20 μM [3]: 1.67 h | half-life at 20 μM ([5]; trypsin in Tris/EDTA buffer): 131 h

From article PMC3407927, “Cyclisation Increases the Stability of the Sea Anemone Peptide APETx2 but Decreases Its Activity at Acid-Sensing Ion Channel 3” (Marine Drugs, 2012)
